Test results: US12690587B2, “Animal and insect repellent and method of its use” (Cranberry IP, LLC, priority 2023, dated 2026)

Tested on: white tail deer
Assay: 12-month field test of repellent at twenty-one monitored test sites (tracks and browsing damage)
Assay type: in vivo, Odocoileus virginianus
Conditions: within 60-day application periods; regular and consistent use
Method: The performance of repellent composition of the present invention was evaluated by the inventor of the present invention in a study that lasted for approximately one year using twenty-one monitored test sites to field test the effectiveness of the composition that included butyl lactate. These sites each had three monitored areas: formulation with butyl lactate (1), same formulation without butyl lactate (2), and control (3), each approximately 100-200 square feet in size. Due to the proximity of the sites, the range of climates, food sources and types of species were consistent, making it easy to assess the repellent's effectiveness, which was evaluated by means of visual inspections and rating for animal tracks around and in the areas, and browsing damage to the plant material.

## CCCCOC(=O)C(C)O (stereo not shown) [Butyl lactate]
  duration of decreased white tail deer damage, presence and entry into treated areas: more than 30 days
